Our source for the IC50 values is patent US20120083476A1, “HETEROARYL-SUBSTITUTED SPIROCYCLIC DIAMINE UREA MODULATORS OF FATTY ACID AMIDE HYDROLASE” (Janssen Pharmaceutica NV, priority 2009, published 2012).

The term pIC50 denotes the negative decadic logarithm of the IC50, by convention in mol/L.

SMILES strings stand for the structures. pIC50: −log10 of the molar value. Where a name gives a salt, the structure may show the parent alone. Read-outs that look alike come from different tables or passages of the source. Where only a bound is given, the exact number is not on record here.

Assay [1] concerns the target T1, Rat FAAH (Rattus norvegicus, UniProt P97612).
T1 construct: expressed in transfected cells; host or cells: SK-N-MC cells stably transfected with rat FAAH cDNA (G418 selection)
T1 sequence (P97612 1-579): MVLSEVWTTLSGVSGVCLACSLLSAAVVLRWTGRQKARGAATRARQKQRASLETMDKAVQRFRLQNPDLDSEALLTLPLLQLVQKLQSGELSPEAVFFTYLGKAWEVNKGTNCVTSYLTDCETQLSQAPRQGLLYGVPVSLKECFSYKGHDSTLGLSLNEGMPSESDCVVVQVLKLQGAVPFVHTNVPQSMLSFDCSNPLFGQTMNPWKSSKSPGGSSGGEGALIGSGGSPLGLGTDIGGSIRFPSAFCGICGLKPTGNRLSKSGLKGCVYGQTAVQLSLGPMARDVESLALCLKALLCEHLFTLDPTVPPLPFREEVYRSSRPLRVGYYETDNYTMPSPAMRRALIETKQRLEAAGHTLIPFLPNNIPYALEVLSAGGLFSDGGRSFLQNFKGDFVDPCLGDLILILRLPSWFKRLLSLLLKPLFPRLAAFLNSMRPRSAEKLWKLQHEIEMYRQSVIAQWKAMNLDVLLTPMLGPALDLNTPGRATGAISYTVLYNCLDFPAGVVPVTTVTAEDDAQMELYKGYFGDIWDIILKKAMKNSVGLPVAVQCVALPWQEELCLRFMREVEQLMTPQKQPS
Put plainly: Assay Method 2: rat FAAH assay (3H-anandamide hydrolysis in cell homogenate). It is filed as biochemical. The gist of the method: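 Homogenates of T84 cells or SK-N-MC cells stably transfected with rat FAAH, in pH 9 Tris/EDTA/glycerol/Triton buffer, incubated 1 h at room temperature with 3H-anandamide. Released labeled ethanolamine separated from substrate on activated charcoal and counted by scintillation; values averaged over runs.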

Assay [2] addresses T2, FAAH (Homo sapiens, UniProt O00519).
T2 sequence (O00519 1-579): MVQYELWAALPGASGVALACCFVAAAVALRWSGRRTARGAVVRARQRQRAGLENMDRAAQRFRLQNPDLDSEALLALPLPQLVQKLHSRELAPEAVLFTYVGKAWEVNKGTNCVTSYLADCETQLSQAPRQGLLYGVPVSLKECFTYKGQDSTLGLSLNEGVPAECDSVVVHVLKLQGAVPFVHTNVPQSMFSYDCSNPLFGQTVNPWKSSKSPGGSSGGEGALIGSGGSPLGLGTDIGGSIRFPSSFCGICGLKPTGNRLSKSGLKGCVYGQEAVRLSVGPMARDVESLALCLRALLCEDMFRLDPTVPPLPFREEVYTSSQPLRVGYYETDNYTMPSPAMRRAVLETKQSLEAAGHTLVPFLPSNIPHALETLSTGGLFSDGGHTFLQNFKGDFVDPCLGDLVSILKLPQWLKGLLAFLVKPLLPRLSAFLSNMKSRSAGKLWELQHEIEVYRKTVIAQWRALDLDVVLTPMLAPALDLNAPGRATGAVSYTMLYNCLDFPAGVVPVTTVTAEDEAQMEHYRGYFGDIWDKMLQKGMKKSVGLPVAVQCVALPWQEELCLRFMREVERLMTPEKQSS
Put plainly: Assay Method 1: human FAAH assay (3H-anandamide hydrolysis in cell homogenate). Format: biochemical. Further details: expressed in transfected cells; host or cells: SK-N-MC cells stably transfected with human FAAH cDNA (G418 selection); alternatively T84 cell pellets. An outline of the steps: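 Homogenates of T84 cells or SK-N-MC cells stably transfected with human FAAH, in pH 9 Tris/EDTA buffer with 0.02% Triton X-100. Incubated 1 h at rt with compound and 80 nM (final) [3H-ethanolamine]-anandamide. Released 3H-ethanolamine separated on charcoal filters and counted by scintillation.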

In the case of `O=C(Nc1ccc(-n2nccn2)nc1)N1CCCC2(CN(Cc3cccc(Oc4ccc(Cl)cc4)c3)C2)C1` [Example 27, N-(6-(2H-1,2,3-triazol-2-yl)pyridin-3-yl)-2-(3-(4-chlorophenoxy)benzyl)-2,6-diazaspiro[3.5]nonane-6-carboxamide], the results for the pIC50 in assay [1] (read-out: Assay 2 IC50) and in assay [2] (read-out: Assay 1 IC50) were 6.70 and 6.10, respectively.
On to `O=C(Nc1cnc2cccnn12)N1CC2(CCN(Cc3cccc(Oc4ccc(Cl)cc4)c3)CC2)C1` [Example 28, 7-(3-(4-chlorophenoxy)benzyl)-N-(imidazo[1,2-b]pyridazin-3-yl)-2,7-diazaspiro[3.5]nonane-2-carboxamide], for which the pIC50 in assay [1] (read-out: Assay 2 IC50) is 8.00; in assay [2], 6.49.
Take `O=C(Nc1cnc2ccccn12)N1CC2(CCN(Cc3cccc(Oc4ccc(Cl)cc4)c3)CC2)C1` [Example 29, 7-(3-(4-chlorophenoxy)benzyl)-N-(imidazo[1,2-a]pyridin-3-yl)-2,7-diazaspiro[3.5]nonane-2-carboxamide]: the pIC50 is 8.00 in assay [1] (read-out: Assay 2 IC50) and 6.66 in assay [2] (read-out: Assay 1 IC50).
For the molecule `O=C(Nc1cnccc1Cl)N1CCCC2(CN(Cc3cccc(Oc4ccc(Cl)cc4)c3)C2)C1` [Example 30, 2-(3-(4-chlorophenoxy)benzyl)-N-(4-chloropyridin-3-yl)-2,6-diazaspiro[3.5]nonane-6-carboxamide], the pIC50 is 6.92 in assay [1] (read-out: Assay 2 IC50) and 5.80 in assay [2] (read-out: Assay 1 IC50).
Turning to `O=C(Nc1cnc2ccccc2c1)N1CCC2(CCN(Cc3cccc(Oc4ccc(Cl)cc4)c3)CC2)CC1` [Example 33, 9-(3-(4-chlorophenoxy)benzyl)-N-(quinolin-3-yl)-3,9-diazaspiro[5.5]undecane-3-carboxamide], the pIC50 is 8.00 in assay [1] (read-out: Assay 2 IC50) and 7.15 in assay [2] (read-out: Assay 1 IC50).
Turning to `O=C(Nc1cnc2ccccn12)N1CCCC2(CN(Cc3cccc(Oc4ccc(Cl)cc4)c3)C2)C1` [Example 34, 2-(3-(4-chlorophenoxy)benzyl)-N-(imidazo[1,2-a]pyridin-3-yl)-2,6-diazaspiro[3.5]nonane-6-carboxamide], the results for the pIC50 in assay [1] (read-out: Assay 2 IC50) and in assay [2] (read-out: Assay 1 IC50) were 6.92 and below 5.00, respectively.
Regarding `O=C(Nc1cccnc1)N1CC2(CN(Cc3cccc(Oc4ccc(Cl)cc4)c3)C2)C1` [Example 35, 6-(3-(4-chlorophenoxy)benzyl)-N-(pyridin-3-yl)-2,6-diazaspiro[3.3]heptane-2-carboxamide], the negative logarithm of the IC50 (pIC50) in assay [1] (read-out: Assay 2 IC50) was 6.15; in assay [2] (read-out: Assay 1 IC50), 7.52.
On to `O=C(Nc1cnccc1Cl)N1CC2(CN(Cc3cccc(Oc4ccc(Cl)cc4)c3)C2)C1` [Example 36, 6-(3-(4-chlorophenoxy)benzyl)-N-(4-chloropyridin-3-yl)-2,6-diazaspiro[3.3]heptane-2-carboxamide], for which the negative-log IC50 (pIC50) in assay [1] (read-out: Assay 2 IC50) was 7.52; in assay [2] (read-out: Assay 1 IC50), 8.00.
The corresponding values for `O=C(Nc1cccnc1)N1CC2(CCN(Cc3cccc(Oc4ccc(Cl)cc4)c3)CC2)C1` [Example 37, 7-[3-(4-Chloro-phenoxy)-benzyl]-2,7-diaza-spiro[3.5]nonane-2-carboxylic acid pyridin-3-ylamide] are 7.22 and 7.05.
Consider `O=C(Nc1noc2ccccc12)N1CC2(CCN(Cc3cccc(Oc4ccc(Cl)cc4)c3)CC2)C1` [Example 38, 7-[3-(4-Chloro-phenoxy)-benzyl]-2,7-diaza-spiro[3.5]nonane-2-carboxylic acid benzo[d]isoxazol-3-ylamide], for which the pIC50 is 7.70 in assay [1] (read-out: Assay 2 IC50) and 6.09 in assay [2] (read-out: Assay 1 IC50).
As to `O=C(Nc1ccc(-n2nccn2)nc1)N1CC2(CCN(Cc3cccc(Oc4ccc(Cl)cc4)c3)CC2)C1` [Example 39, 7-[3-(4-Chloro-phenoxy)-benzyl]-2,7-diaza-spiro[3.5]nonane-2-carboxylic acid (6-[1,2,3]triazol-2-yl-pyridin-3-yl)-amide], the pIC50 in assay [1] (read-out: Assay 2 IC50) and in assay [2] (read-out: Assay 1 IC50) was 7.70 in each case.
Turning to `O=C(Nc1cnc2[nH]ccc2c1)N1CC2(CCN(Cc3cccc(Oc4ccc(Cl)cc4)c3)CC2)C1` [Example 40, 7-[3-(4-Chloro-phenoxy)-benzyl]-2,7-diaza-spiro[3.5]nonane-2-carboxylic acid (1H-pyrrolo[2,3-b]pyridin-5-yl)-amide, trifluoroacetic acid salt], the pIC50 in assay [1] (read-out: Assay 2 IC50) is 7.40; in assay [2] (read-out: Assay 1 IC50) it was 7.22.
Turning to `O=C(Nc1ccc(-n2nccn2)cc1)N1CC2(CCN(Cc3cccc(Oc4ccc(Cl)cc4)c3)CC2)C1` [Example 41, 7-[3-(4-Chloro-phenoxy)-benzyl]-2,7-diaza-spiro[3.5]nonane-2-carboxylic acid (4-[1,2,3]triazol-2-yl-phenyl)-amide, trifluoroacetic acid salt], the pIC50 in assay [1] (read-out: Assay 2 IC50) is 7.10; in assay [2] (read-out: Assay 1 IC50) it was 7.70.
With `O=C(Nc1ncccn1)N1CC2(CCN(Cc3cccc(Oc4ccc(Cl)cc4)c3)CC2)C1` [Example 42, 7-[3-(4-Chloro-phenoxy)-benzyl]-2,7-diaza-spiro[3.5]nonane-2-carboxylic acid pyrimidin-2-ylamide, trifluoroacetic acid salt], the pIC50 in assay [1] (read-out: Assay 2 IC50) was 6.00; in assay [2] (read-out: Assay 1 IC50), below 5.00.
Consider `O=C(Nc1ccncn1)N1CC2(CCN(Cc3cccc(Oc4ccc(Cl)cc4)c3)CC2)C1` [Example 43, 7-[3-(4-Chloro-phenoxy)-benzyl]-2,7-diaza-spiro[3.5]nonane-2-carboxylic acid pyrimidin-4-ylamide, trifluoroacetic acid salt], for which the pIC50 is 5.26 in assay [1] and 5.25 in assay [2].
Consider `O=C(Nc1cccnn1)N1CC2(CCN(Cc3cccc(Oc4ccc(Cl)cc4)c3)CC2)C1` [Example 44, 7-[3-(4-Chloro-phenoxy)-benzyl]-2,7-diaza-spiro[3.5]nonane-2-carboxylic acid pyridazin-3-ylamide, trifluoroacetic acid salt], for which the pIC50 in assay [1] was 6.59; in assay [2] (read-out: Assay 1 IC50) it was 6.37.
Consider `O=C(Nc1ccc(-n2cccn2)nc1)N1CC2(CCN(Cc3cccc(Oc4ccc(Cl)cc4)c3)CC2)C1` [Example 45, 7-[3-(4-Chloro-phenoxy)-benzyl]-2,7-diaza-spiro[3.5]nonane-2-carboxylic acid (6-pyrazol-1-yl-pyridin-3-yl)-amide, trifluoroacetic acid salt], for which the values for the pIC50 in assay [1] (read-out: Assay 2 IC50) and in assay [2] (read-out: Assay 1 IC50) were 7.00 and 7.40, respectively.
With `O=C(Nc1ccc(-n2cncn2)nc1)N1CC2(CCN(Cc3cccc(Oc4ccc(Cl)cc4)c3)CC2)C1` [Example 46, 7-[3-(4-Chloro-phenoxy)-benzyl]-2,7-diaza-spiro[3.5]nonane-2-carboxylic acid (6-[1,2,4]triazol-1-yl-pyridin-3-yl)-amide, trifluoroacetic acid salt], the pIC50 in assay [1] (read-out: Assay 2 IC50) and in assay [2] (read-out: Assay 1 IC50) was 6.00 in each case.
In the case of `O=C(Nc1ccc(Cl)nc1)N1CC2(CCN(Cc3cccc(Oc4ccc(Cl)cc4)c3)CC2)C1` [Example 48, 7-[3-(4-Chloro-phenoxy)-benzyl]-2,7-diaza-spiro[3.5]nonane-2-carboxylic acid (6-chloro-pyridin-3-yl)-amide, trifluoroacetic acid salt], the pIC50 in assay [1] (read-out: Assay 2 IC50) was 5.10; in assay [2] (read-out: Assay 1 IC50) it was 5.82.
The corresponding values for `COc1ccc(NC(=O)N2CC3(CCN(Cc4cccc(Oc5ccc(Cl)cc5)c4)CC3)C2)cn1` [Example 49, 7-[3-(4-Chloro-phenoxy)-benzyl]-2,7-diaza-spiro[3.5]nonane-2-carboxylic acid (6-methoxy-pyridin-3-yl)-amide, trifluoroacetic acid salt] are 5.10 and 5.74.
Take `N#Cc1ccc(NC(=O)N2CC3(CCN(Cc4cccc(Oc5ccc(Cl)cc5)c4)CC3)C2)cn1` [Example 50, 7-[3-(4-Chloro-phenoxy)-benzyl]-2,7-diaza-spiro[3.5]nonane-2-carboxylic acid (6-cyano-pyridin-3-yl)-amide, trifluoroacetic acid salt]: the negative-log IC50 (pIC50) in assay [1] (read-out: Assay 2 IC50) is 5.10; in assay [2] (read-out: Assay 1 IC50), 6.09.
